The values that follow come from a flash point compilation (Sun et al. 2020).

With `CN(C)P(=O)(N(C)C)N(C)C` [N-[bis(dimethylamino)phosphoryl]-N-methylmethanamine], the flash point amounted to 106.00 °C.
`CCC(C)Nc1c([N+](=O)[O-])cc(C(C)(C)C)cc1[N+](=O)[O-]` (stereo unspecified) [N-butan-2-yl-4-tert-butyl-2,6-dinitroaniline] showed a flash point of 36.00 °C.
In the case of `CCC(C)=NO` [N-butan-2-ylidenehydroxylamine], the flash point was found to be 59.00 °C.
For `CCCCN(C(C)=O)c1ccccc1` [N-butyl-N-phenylacetamide], the flash point is 141.00 °C.
The result for `CCCCN(CCC)N=O` [N-butyl-N-propylnitrous amide] reads 94.00 °C; that for `CCCC=NO` [N-butylidenehydroxylamine], 58.00 °C; that for `ClNc1ccccc1` [N-chloroaniline], 108.00 °C.
The result for `CCN(C)N=O` [N-ethyl-N-methylnitrous amide] reads 76.00 °C.
Under `CCCCNC` [N-methylbutan-1-amine] stands 13.00 °C.
The compound `CNC=O` [N-methylformamide] registered a flash point of 98.00 °C.
In the case of `CNC` [N-methylmethanamine], the flash point is -7.00 °C.
Under `CC(=O)Nc1ccccc1` [N-phenylacetamide] stands 174.00 °C.
Take `CC(C)NC(C)C` [N-propan-2-ylpropan-2-amine]: the flash point was -1.00 °C.
The compound `CCCNCCC` [N-propylpropan-1-amine] had a flash point of 17.00 °C.
Compound `CCSC(=O)N(CC)C1CCCCC1` [S-ethyl N-cyclohexyl-N-ethylcarbamothioate] yielded a flash point of 139.00 °C.
Under `CCSC(=O)Cl` [S-ethyl chloromethanethioate] stands 31.00 °C.
The result for `CCCSC(=O)N(CCC)CCC` [S-propyl N,N-dipropylcarbamothioate] reads 122.00 °C; that for `CCCSC(=O)Cl` [S-propyl chloromethanethioate], 62.00 °C.
Compound `C#CCOS(=O)OC1CCCCC1Oc1ccc(C(C)(C)C)cc1` (stereo unspecified) [[2-(4-tert-butylphenoxy)cyclohexyl] prop-2-ynyl sulfite] displayed a flash point of 28.00 °C.
For the compound `OCC1CCC(CO)CC1` (stereo unspecified) [[4-(hydroxymethyl)cyclohexyl]methanol], the flash point is 166.00 °C.
In turn, `C/C=C/c1ccccc1` [[(E)-prop-1-enyl]benzene] registered a flash point of 52.00 °C.
Regarding `C[Si](C)(C)N[Si](C)(C)C` [[dimethyl-(trimethylsilylamino)silyl]methane], the flash point was 9.00 °C.
In turn, `CC(=O)OC(C)=O` [acetyl acetate] had a flash point of 49.00 °C.
For `CC(=O)Br` [acetyl bromide], the flash point was determined as 75.00 °C.
In turn, `CC(=O)Cl` [acetyl chloride] had a flash point of 4.00 °C.
`CC(=O)OOC(C)=O` [acetyl ethaneperoxoate] returned a flash point of 45.00 °C.
In turn, `C#C` [acetylene] registered a flash point of -18.00 °C.
The result for `CC(=O)[O][Hg][c]1ccccc1` [acetyloxy(phenyl)mercury] reads 60.00 °C; that for `Nc1ccccc1` [aniline], 70.00 °C; that for `COc1ccccc1` [anisole], 52.00 °C.
For the compound `O=Cc1ccccc1` [benzaldehyde], the flash point stood at 64.00 °C.
In turn, `N#Cc1ccccc1C#N` [benzene-1,2-dicarbonitrile] yielded a flash point of 162.00 °C.
With `Oc1cccc(O)c1` [benzene-1,3-diol], the flash point was 127.00 °C.
For the compound `Nc1ccc(N)cc1` [benzene-1,4-diamine], the flash point was 155.00 °C.
`O=C(Cl)c1ccc(C(=O)Cl)cc1` [benzene-1,4-dicarbonyl chloride] returned a flash point of 180.00 °C.
Take `Oc1ccc(O)cc1` [benzene-1,4-diol]: the flash point turned out to be 165.00 °C.
In turn, `c1ccccc1` [benzene] showed a flash point of -11.00 °C.
In turn, `Sc1ccccc1` [benzenethiol] showed a flash point of 53.00 °C.
The result for `c1ccc2c(c1)ccc1ncccc12` [benzo[f]quinoline] reads 166.00 °C; that for `N#Cc1ccccc1` [benzonitrile], 72.00 °C; that for `CC(=O)OCc1ccccc1` [benzyl acetate], 91.00 °C.
Under `O=C(OCc1ccccc1)c1ccccc1` [benzyl benzoate] stands 148.00 °C.
For `CCCCC(CC)COC(=O)c1ccc(C(=O)OCC(CC)CCCC)cc1` (stereo unspecified) [bis(2-ethylhexyl) benzene-1,4-dicarboxylate], the flash point was 238.00 °C.
As to `CCCCC(CC)COC(=O)CCCCCCCCC(=O)OCC(CC)CCCC` (stereo unspecified) [bis(2-ethylhexyl) decanedioate], the flash point was 210.00 °C.
`CCCCC(CC)COC(=O)CCCCC(=O)OCC(CC)CCCC` (stereo unspecified) [bis(2-ethylhexyl) hexanedioate]: the flash point came out at 196.00 °C.
`CC(C)CCCCCOC(=O)c1ccccc1C(=O)OCCCCCC(C)C` [bis(6-methylheptyl) benzene-1,2-dicarboxylate] displayed a flash point of 232.00 °C.
Under `CC(C)CCCCCCOC(=O)C1CCCCC1C(=O)OCCCCCCC(C)C` (stereo unspecified) [bis(7-methyloctyl) cyclohexane-1,2-dicarboxylate] stands 224.00 °C; under `CC(C)CCCCCCCOC(=O)c1ccccc1C(=O)OCCCCCCCC(C)C` [bis(8-methylnonyl) benzene-1,2-dicarboxylate], 232.00 °C.
As for `CC(=O)C=C=O` [but-1-ene-1,3-dione], the flash point was 33.00 °C.
Compound `OC=CCCO` [but-1-ene-1,4-diol] had a flash point of 128.00 °C.
For the compound `C=CCC` [but-1-ene], the flash point was -79.00 °C.
`OCC=CCO` [but-2-ene-1,4-diol]: the flash point was 128.00 °C.
With `CC=CC(=O)O` [but-2-enoic acid], the flash point was 88.00 °C.
The result for `C=CC(C)=O` [but-3-en-2-one] reads -7.00 °C; that for `C=CC=C` [buta-1,3-diene], -76.00 °C.
Take `CCCCO.CCCCO.CCCCO.CCCCO.[Ti]` [butan-1-ol;titanium]: the flash point came out at 77.00 °C.
As for `CCC(C)N` (stereo unspecified) [butan-2-amine], the flash point is -9.00 °C.
The result for `CCC(C)=O` [butan-2-one] reads -3.00 °C; that for `CCC(C)OC(C)=O` (stereo unspecified) [butan-2-yl acetate], 17.00 °C; that for `CCC(C)c1ccccc1` (stereo unspecified) [butan-2-ylbenzene], 52.00 °C.
`CC(N)CCN` (stereo unspecified) [butane-1,3-diamine] had a flash point of 52.00 °C.
Under `OCCCCO` [butane-1,4-diol] stands 119.00 °C; under `CCCCS` [butane-1-thiol], 13.00 °C.
Compound `CC(=O)C(C)=O` [butane-2,3-dione] displayed a flash point of 27.00 °C.
For the compound `N#CCCC#N` [butanedinitrile], the flash point is 132.00 °C.
`O=C(O)CCC(=O)O` [butanedioic acid] registered a flash point of 160.00 °C.
